Measurements taken from US12319655B2, “RAF kinase inhibitors and methods of use thereof” (Deciphera Pharmaceuticals, LLC, priority 2021, dated 2025).

Key:
A375 cells = experiment: A375 Cell Proliferation Assay (1); type: cell-based; settings: Homo sapiens, A-375
Summary of the method: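 Resazurin fluorescence (excitation 540 nm, emission 600 nm, after a further 5-6 h) gave IC50s from triplicate compound dilution series.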

[1] = biological target: A-Raf kinase (SEQ. ID No: 1) (Homo sapiens (Human), UniProt P10398, Y301D/Y302D); experiment: Biochemical Assay for A-Raf (1); settings: Table J, assay version (1); read-out: ARAF (1) IC50
Chain of A-Raf kinase (SEQ. ID No: 1) (P10398 other isoform, or with tags, fused parts or gaps Y301D (already in the parent)/Y302D (already in the parent)): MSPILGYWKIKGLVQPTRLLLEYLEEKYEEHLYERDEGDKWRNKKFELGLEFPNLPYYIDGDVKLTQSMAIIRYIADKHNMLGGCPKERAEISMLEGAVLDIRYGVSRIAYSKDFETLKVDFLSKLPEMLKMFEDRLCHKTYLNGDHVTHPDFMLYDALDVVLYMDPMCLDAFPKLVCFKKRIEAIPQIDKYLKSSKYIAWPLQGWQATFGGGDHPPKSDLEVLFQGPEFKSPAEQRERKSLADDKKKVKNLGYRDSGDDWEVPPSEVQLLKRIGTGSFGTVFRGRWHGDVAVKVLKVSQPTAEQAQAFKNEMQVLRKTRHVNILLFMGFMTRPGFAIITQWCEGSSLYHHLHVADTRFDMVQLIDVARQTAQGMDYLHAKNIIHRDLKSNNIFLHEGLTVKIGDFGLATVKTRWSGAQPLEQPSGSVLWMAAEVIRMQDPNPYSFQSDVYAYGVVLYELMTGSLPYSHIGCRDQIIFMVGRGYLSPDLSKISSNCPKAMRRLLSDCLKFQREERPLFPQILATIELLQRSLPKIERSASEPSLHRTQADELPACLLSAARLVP
Summary of the method: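 IC50 values were derived by four-parameter sigmoidal fitting of percent inhibition, calculated from reaction rates over the 4–5 h window. Absorbance at 340 nm was tracked for 6 h at 30 °C via coupled PK/LDH NADH depletion. Conditions: 1 mM ATP, 30.1 nM MEK substrate, 5.55 nM A-Raf (Y301D/Y302D), Tris pH 7.5, 1% DMSO.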

[2] = biological target: C-Raf kinase (SEQ. ID NO: 3) (Homo sapiens (Human), UniProt P04049, Y340D/Y341D); experiment: Biochemical Assay for C-Raf (1); settings: Table J, assay version (1); read-out: CRAF (1) IC50
Chain of C-Raf kinase (SEQ. ID NO: 3) (P04049 307-648 Y340D/Y341D): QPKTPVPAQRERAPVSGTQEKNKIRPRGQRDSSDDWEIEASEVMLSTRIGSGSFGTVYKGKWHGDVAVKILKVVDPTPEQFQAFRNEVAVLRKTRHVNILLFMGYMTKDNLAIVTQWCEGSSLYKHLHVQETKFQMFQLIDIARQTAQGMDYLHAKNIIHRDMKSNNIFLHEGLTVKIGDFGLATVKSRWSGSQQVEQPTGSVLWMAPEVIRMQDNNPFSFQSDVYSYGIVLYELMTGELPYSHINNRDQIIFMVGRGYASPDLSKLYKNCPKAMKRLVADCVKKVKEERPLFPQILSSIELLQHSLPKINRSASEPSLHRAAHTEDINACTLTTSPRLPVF
Summary of the method: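 IC50 values come from a four-parameter fit of percent inhibition, using the reaction rate over 4–5 h of a 6 h continuous 340 nm read at 30 °C. The enzyme mix was C-Raf 0.43 nM, MEK substrate 30.1 nM and ATP 1 mM, in a PK/LDH NADH-coupled format in Tris pH 7.5 with 1% DMSO.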

Miapaca-2 cells = experiment: MiaPaca-2 Cell Proliferation Assay (1); type: cell-based; settings: Homo sapiens, MIA PaCa-2, single agent, read-out: MiaPaca2 (1) IC50
Summary of the method: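 Resazurin was added after compound exposure and incubated 5-6 h, then fluorescence read at 540 nm excitation and 600 nm emission to give IC50.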

Compound	IC50 (A375 cells) [µM]	IC50 [1] [µM]	IC50 [2] [µM]	IC50 (Miapaca-2 cells) [µM]
CC(=O)Nc1cc(-c2cc(-c3cc(NC(=O)c4ccnc(C(F)(F)F)c4)ccc3C)cc(N3CCOCC3)n2)ccn1 [Example 15]	≤ 0.1	1 to 10	≤ 0.1	1 to 10
CC(=O)Nc1cc(-c2cc(-c3cc(NC(=O)c4ccnc(C(F)(F)F)c4)ccc3C)cc(C3CC3)n2)ccn1 [Example 14]	≤ 0.1	1 to 10	≤ 0.1	1 to 10
CNC(=O)c1cc(-c2cc(-c3cc(NC(=O)c4ccnc(C(C)(C)OC)c4)ccc3C)ccn2)ccn1 [Example 264]	≤ 0.1	1 to 10	≤ 0.1	1 to 10
COCCNc1cc(-c2nccc(-c3cc(NC(=O)c4ccnc(C(C)(C)C#N)c4)ccc3C)n2)ccn1 [Example 221]	1 to 10	1 to 10	≤ 0.1	1 to 10
COC(=O)Nc1cc(-c2cccc(-c3cc(NC(=O)c4ccnc(C(C)(C)C#N)c4)cnc3C)c2)ncn1 [Example 225]	≤ 0.1	1 to 10	≤ 0.1	1 to 10
Cc1ccc(NC(=O)c2ccnc(C3(C#N)CC3)c2)cc1-c1cccc(-c2cc(NC(=O)C3CC3)ncn2)n1 [Example 220]	1 to 10	1 to 10	0.1 to 0.5	1 to 10
CNC(=O)c1cc(-c2nccc(-c3cc(NC(=O)c4ccnc(C(C)(C)C#N)c4)cnc3C)n2)ccn1 [Example 194]	0.5 to 1	1 to 10	0.1 to 0.5	1 to 10
Cc1ncc(NC(=O)c2ccnc(C(C)(C)C#N)c2)cc1-c1cccc(-c2cc(N)ncn2)c1 [Example 207]	1 to 10	1 to 10	≤ 0.1	
Cc1ccc(NC(=O)c2ccnc(C(C)(C)F)c2)cc1-c1ccnc(-c2ccnc(NC(=O)C3CC3)c2)n1 [Example 186]	≤ 0.1	0.5 to 1	≤ 0.1	1 to 10
Cc1ccc(NC(=O)c2ccnc(C(C)(C)C#N)c2)cc1-c1cc(-c2cc(NC(=O)C3CC3)ncn2)cc(C2CC2)c1 [Example 216]	≤ 0.1	1 to 10	0.1 to 0.5	1 to 10
COC(C)(C)c1cc(C(=O)Nc2ccc(C)c(-c3ccnc(-c4ccnc(NC(=O)C5CC5)c4)n3)c2)ccn1 [Example 190]	≤ 0.1	0.5 to 1	≤ 0.1	1 to 10
Cc1ncc(NC(=O)c2ccnc(C(C)(C)F)c2)cc1-c1cccc(-c2cc(NC(=O)C3CC3)ncn2)c1 [Example 249]	≤ 0.1	0.5 to 1	≤ 0.1	1 to 10
CNC(=O)c1cc(-c2cccc(-c3cc(NC(=O)c4ccnc(C(C)(C)C#N)c4)cnc3C)c2)cnn1 [Example 201]	0.1 to 0.5	1 to 10	0.1 to 0.5	
Cc1ccc(NC(=O)c2ccnc(C(F)(F)F)c2)cc1-c1ccnc(-c2ccnc(N)c2)c1 [Example 16, N-(3-(2′-amino-[2,4′-bipyridin]-4-yl)-4-methylphenyl)-2-(trifluoromethyl)isonicotinamide]	1 to 10	1 to 10	≤ 0.1	1 to 10
CC(C)(C#N)c1cc(C(=O)Nc2ccc(C#N)c(-c3cccc(-c4cc(NC(=O)C5CC5)ncn4)c3)c2)ccn1 [Example 240]	0.1 to 0.5	1 to 10	≤ 0.1	
CNC(=O)c1cc(-c2cccc(-c3cc(NC(=O)c4ccnc(C(C)(C)C#N)c4)ccc3C)c2)cnn1 [Example 191]	≤ 0.1	1 to 10	≤ 0.1	
CNC(=O)c1cc(-c2cc(-c3cc(NC(=O)c4ccnc(C(C)(C)C#N)c4)ccc3F)ccn2)ccn1 [Example 205]	0.1 to 0.5	1 to 10	≤ 0.1	
CNC(=O)c1cc(-c2nc(-c3cc(NC(=O)c4ccnc(C(C)(C)C#N)c4)ccc3C)cc(C3CC3)n2)ccn1 [Example 196]	≤ 0.1	1 to 10	0.1 to 0.5	
Cc1ncc(NC(=O)c2ccnc(C(C)C)c2)cc1-c1cccc(-c2ccnc(NC(=O)C3CC3)c2)n1 [Example 269]	≤ 0.1	1 to 10	≤ 0.1	
CNC(=O)c1cc(-c2ccnc(-c3cc(NC(=O)c4ccnc(C(C)(C)F)c4)ccc3C)n2)ccn1 [Example 246]	0.1 to 0.5	1 to 10	≤ 0.1	
CNC(=O)c1cc(-c2ccnc(-c3cc(NC(=O)c4ccnc(C(C)(C)C#N)c4)c(F)cc3C)n2)ccn1 [Example 242]	0.5 to 1	1 to 10	0.1 to 0.5	
Cc1ccc(NC(=O)c2ccnc(C3CC3)c2)cc1-c1cccc(-c2cc(NC(=O)C3CC3)ncn2)c1 [Example 255]	≤ 0.1	1 to 10	≤ 0.1	
Cc1ccc(NC(=O)c2cc(CN(C)C)cc(C(F)(F)F)c2)cc1-c1cncc(-c2ccnc(NC(=O)C3CC3)c2)n1 [Example 185]	≤ 0.1	0.1 to 0.5	≤ 0.1	

Further lines, results first:

IC50 (A375 cells) [µM]	IC50 [1] [µM]	IC50 [2] [µM]	IC50 (Miapaca-2 cells) [µM]	Compound
0.1 to 0.5	1 to 10	≤ 0.1		CCNC(=O)c1cc(-c2cc(-c3cc(NC(=O)c4ccnc(C(C)(C)C#N)c4)ccc3C)ccn2)ccn1 [Example 266]
0.5 to 1	0.5 to 1	≤ 0.1	1 to 10	Cc1cc(F)c(NC(=O)c2ccnc(C(F)(F)F)c2)cc1-c1cncc(-c2ccnc(NC(=O)C3CC3)c2)n1 [Example 271]
≤ 0.1	1 to 10	≤ 0.1	1 to 10	Cc1ccc(NC(=O)c2ccnc(C3(C#N)CC3)c2)cc1-c1cccc(-c2cc(NC(=O)C3CC3)ncn2)c1 [Example 203]
≤ 0.1	0.5 to 1	≤ 0.1	0.1 to 0.5	CC(=O)Nc1cc(-c2cc(-c3cc(NC(=O)c4ccnc(C(C)(C)C#N)c4)ccc3C)ccn2)ccn1 [Example 19]
0.1 to 0.5	1 to 10	0.1 to 0.5		CNC(=O)c1cc(-c2ccnc(-c3cc(NC(=O)c4ccnc(C(C)(C)OC)c4)ccc3C)n2)ccn1 [Example 268]
0.5 to 1	1 to 10	≤ 0.1		CNC(=O)c1cc(-c2cc(-c3cc(NC(=O)c4ccnc(C(C)(C)C#N)c4)ccc3F)cc(C)n2)ccn1 [Example 259]
0.1 to 0.5	1 to 10	0.1 to 0.5	1 to 10	CNC(=O)c1cc(-c2cccc(-c3cc(NC(=O)c4ccnc(C(C)(C)C#N)c4)cnc3C)c2)ncn1 [Example 204]
≤ 0.1	0.1 to 0.5	≤ 0.1		Cc1cc(F)c(NC(=O)c2ccnc(C(C)(C)F)c2)cc1-c1cncc(-c2ccnc(NC(=O)C3CC3)c2)n1 [Example 276]
0.1 to 0.5	1 to 10	0.1 to 0.5	1 to 10	Cc1ncc(NC(=O)c2ccnc(C(C)(C)C#N)c2)cc1-c1ccnc(-c2ccnc(NC(=O)C(C)(C)C#N)c2)c1 [Example 219]
1 to 10	1 to 10	≤ 0.1	1 to 10	Cc1cc(-c2cc(NC(=O)c3ccnc(C(F)(F)F)c3)ccc2C)cc(-c2ccnc3c2CC(=O)N3)n1 [Example 20]
1 to 10	1 to 10	≤ 0.1	1 to 10	Cc1cc(F)c(NC(=O)c2cnnc(C3CC3)c2)cc1-c1ccnc(-c2ccnc(NC(=O)C3CC3)c2)n1 [Example 263]
1 to 10	1 to 10	0.1 to 0.5		CNC(=O)c1cc(-c2ccnc(-c3cc(NC(=O)c4ccnc(C(C)(C)C#N)c4)cnc3C)n2)ccn1 [Example 199]
≤ 0.1	0.5 to 1	≤ 0.1	1 to 10	Cc1ccc(NC(=O)c2ccnc(C(C)(C)C#N)c2)cc1-c1cc(-c2ccnc(NC(=O)C3CC3)c2)cnn1 [Example 245]
≤ 0.1	1 to 10	≤ 0.1	1 to 10	Cc1ncc(NC(=O)c2ccnc(C(C)(C)C#N)c2)cc1-c1cc(-c2cc(NC(=O)C3CC3)ncn2)cc(C2CC2)c1 [Example 218]
1 to 10	1 to 10	0.1 to 0.5		CNC(=O)c1cc(-c2cc(-c3cc(NC(=O)c4ccnc(C(C)(C)C#N)c4)ccc3C#N)ccn2)ccn1 [Example 247]
	1 to 10	0.5 to 1	1 to 10	Cc1ncc(NC(=O)c2ccnc(C(C)(C)C#N)c2)cc1-c1cccc(-c2cc(NC(=O)C(C)(C)C)ncn2)c1 [Example 213]
≤ 0.1	0.5 to 1	≤ 0.1		Cc1ccc(NC(=O)c2ccnc(C(C)(C)C#N)c2)cc1-c1cccc(-c2ccnc(NC(=O)C3CC3)c2)c1 [Example 223]
1 to 10	1 to 10	0.1 to 0.5		COC(C)(C)C(=O)Nc1cc(-c2cc(-c3cc(NC(=O)c4ccnc(C(C)(C)C#N)c4)ccc3C)ccn2)ccn1 [Example 237]
0.5 to 1	1 to 10	≤ 0.1		Cc1ncc(NC(=O)c2ccnc(C3CC3)c2)cc1-c1ccnc(-c2ccnc(NC(=O)C3CC3)c2)n1 [Example 277]
